This is an account of results in patent publication US11634702B2, “Cell signaling pathway activation by local AC electric field” (ARIZONA BOARD OF REGENTS ON BEHALF OF ARIZONA STATE …, priority 2018, dated 2023).

This assay deals with EGFR-Ras-ERK signaling pathway in MCF10A cells. Kind of assay: ERK activation by AC EF stimulation (ERKTR reporter) in blocker tests. Format: cell-based.

As for `Cc1c(C)c2c(c(C)c1O)CCC(C)(C(=O)O)O2` (centres unmarked) [Trolox], under “Trolox 350 μM”, the “effect on ERK activation under AC EF stimulation” value was “neither Ca2+ chelator (BAPTA AM, 3 μM, Life Technologies), nor ROS quencher (Trolox, 350 μM, Sigma-Aldrich) could block the EF activation of ERK”.

For the compound `CC(=O)OCOC(=O)CN(CC(=O)OCOC(C)=O)c1ccccc1OCCOc1ccccc1N(CC(=O)OCOC(C)=O)CC(=O)OCOC(C)=O` [BAPTA AM], the “effect on ERK activation under AC EF stimulation” value (BAPTA AM 3 μM) is “neither Ca2+ chelator (BAPTA AM, 3 μM, Life Technologies), nor ROS quencher (Trolox, 350 μM, Sigma-Aldrich) could block the EF activation of ERK”.
